From patent US8163906B2, “Dihydroquinone and dihydronaphthridine inhibitors of JNK” (Roche Palo Alto, LLC, priority 2007, dated 2012)
Where two headings read alike, the source gives them in different places.

Key:
Human JNK1α1 = Human JNK1α1 (Homo sapiens, UniProt P45983); experiment: JNK assay in vitro, phosphorylation of GST-ATF2 with [γ-33P] ATP (JNK1); format: biochemical; settings: 1 μM ATF2, 30° C. 30 min
Protocol: (§1) JNK activity was measured by phosphorylation of GST-ATF2 (19-96) with [γ-^33P] ATP. […] Human JNK2α2 assay contains 1 nM enzyme, 1 μM ATF2, 8 μM ATP with 1 uCi [γ-^33P] ATP. Human JNK1α1 assay contains 2 nM enzyme, 1 μM ATF2, 6 μM ATP with 1 μCi [γ-^33P] ATP. […] ATP. The enzyme assay was carried out in the presence or absence of several compound concentrations. JNK and compound were pre-incubated for 10 min., followed by initiation of the enzymatic reaction by adding ATP and the substrate. The reaction mixture was incubated at 30° C. for 30 min. […] The incorporation of ^33P into ATF2 was quantified on a microplate scintillation counter (Packard Topcount). Compound inhibition potency on JNK was measured by IC50 value generated from ten concentration inhibition curves fitted into the 3-parameter model: % inhibition=Maximum/(1+(IC50/[Inhibitor])^slope). Data were analyzed on Microsoft Excel for parameter estimation.

Human JNK2α2 = Human JNK2α2 (Homo sapiens, UniProt P45984); experiment: JNK assay in vitro, phosphorylation of GST-ATF2 with [γ-33P] ATP (JNK2); format: biochemical; settings: ATP at Km (8 μM), 1 μM ATF2, 30° C. 30 min
Protocol: as §1

[1] = test system: TNFα-induced IL-6 production; experiment: Rat in vivo TNFα-induced IL-6 production assay, oral gavage; parameters: species or system Female Wistar-Han rats; settings: 30 min prior to TNF-α i.p. challenge, plasma 90 min after challenge
Protocol: Female Wistar-Han rats procured from Charles River Laboratories were allowed to acclimate for one week prior to use and achieve an approximate body weight of 101-130 g. Rats were administered test compound (N=8 per compound) via oral gavage 30 min prior to an intraperitoneal challenge of 0.5 μg recombinant rat TNF-α (Biosource). Blood was collected via cardiocentesis 90 min after TNF-α challenge. Plasma was prepared using lithium heparin separation tubes (BD microtainer) and frozen at −80° C. until analyzed. IL-6 levels were determined using a rat specific IL-6 ELISA kit (Biosource). The percent inhibition and ED50 values (calculated as the dose of compound at which […] is 50% of the control value) were determined.

[2] = test system: TNFα-induced IL-6 production; experiment: Rat in vivo TNFα-induced IL-6 production assay, subcutaneous; parameters: species or system Female Wistar-Han rats; settings: plasma 90 min after TNF-α challenge
Protocol: Female Wistar-Han rats procured from Charles River Laboratories were allowed to acclimate for one week prior to use and achieve an approximate body weight of 114-132 g. Rats were administered compound 18 (N=8 per dose) subcutaneously 30 min prior to an intra-peritoneal challenge of 0.5 μg recombinant rat TNF-α (Biosource). Blood was collected via cardiocentesis 90 min after TNF-α challenge. Plasma was prepared using lithium heparin separation tubes (BD microtainer) and frozen at −80° C. until analyzed. IL-6 levels were determined using a rat specific IL-6 ELISA kit (Biosource). The percent inhibition and ED50 values (calculated as the dose of compound at which […] is 50% of the control value) were determined.

[3] = ATP at Km (6 μM), read-out: IC50 vs. JNK1
[4] = IC50 vs. JNK1, ATP at Km (6 μM)

Chain of Human JNK2α2 (P45984 whole entry): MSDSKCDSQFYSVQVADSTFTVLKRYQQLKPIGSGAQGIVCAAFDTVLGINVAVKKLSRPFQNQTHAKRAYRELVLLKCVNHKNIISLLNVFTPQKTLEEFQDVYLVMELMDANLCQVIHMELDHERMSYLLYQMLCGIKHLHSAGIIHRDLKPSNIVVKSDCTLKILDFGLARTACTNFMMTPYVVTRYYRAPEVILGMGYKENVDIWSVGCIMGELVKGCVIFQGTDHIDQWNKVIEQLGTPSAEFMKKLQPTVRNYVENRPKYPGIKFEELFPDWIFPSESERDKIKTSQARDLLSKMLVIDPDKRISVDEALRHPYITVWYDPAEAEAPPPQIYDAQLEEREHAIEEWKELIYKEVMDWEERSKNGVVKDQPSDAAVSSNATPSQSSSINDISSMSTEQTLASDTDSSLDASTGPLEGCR
Chain of Human JNK1α1 (P45983 1-384 isoform P45983-2): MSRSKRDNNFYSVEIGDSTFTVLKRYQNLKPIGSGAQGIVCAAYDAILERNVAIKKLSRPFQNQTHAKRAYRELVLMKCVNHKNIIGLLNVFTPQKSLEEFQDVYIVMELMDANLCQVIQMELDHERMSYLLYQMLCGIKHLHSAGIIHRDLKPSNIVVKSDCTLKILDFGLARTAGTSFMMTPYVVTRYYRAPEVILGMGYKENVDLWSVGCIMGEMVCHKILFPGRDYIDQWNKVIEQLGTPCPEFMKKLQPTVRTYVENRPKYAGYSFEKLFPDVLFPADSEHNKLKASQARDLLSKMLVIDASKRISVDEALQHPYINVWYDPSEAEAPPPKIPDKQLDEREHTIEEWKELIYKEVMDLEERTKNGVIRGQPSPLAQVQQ

melting point [°C]	IC50 (Human JNK1α1; [3]) [nM]	IC50 (Human JNK2α2) [nM]	SMILES	further results
191.5 to 193.1	32.8	95.7	COC(=O)c1c(Cc2ccc(S(=O)(=O)NCCO)cc2)c(=O)c2ccc(Cl)cc2n1-c1ccccc1 [Compound 65, 7-chloro-3-[4-(2-hydroxy-ethylsulfamoyl)-benzyl]-4-oxo-1-phenyl-1,4-dihydro-quinoline-2-carboxylic acid methyl ester]	
161 to 163	250	2100	COC(=O)c1c(CN2CCC(N3CCOCC3)CC2)c(=O)c2ccc(F)cc2n1-c1ccccc1 [Compound 135]	
145.5 to 147.2	134	399	CC(=O)c1c(Cc2ccc(S(=O)(=O)N3CCC(O)CC3)cc2)c(=O)c2ccc(Cl)cc2n1-c1ccccc1 [Compound 70, 2-Acetyl-7-chloro-3-[4-(4-hydroxypiperidine-1-sulfonyl)-benzyl]-1-phenyl-1H-quinolin-4-one]	
> 300	193	477	CCC(=O)c1c(Cc2ccc(S(=O)(=O)N3CCN(C)CC3)cc2)c(=O)c2ccc(Cl)cc2n1-c1ccccc1 [Compound 80, 7-chloro-3-[4-(4-methylpiperazin-1-sulfonyl)benzyl]-1-phenyl-2-propionyl-1H-quinlin-4-one]	
218.1 to 219.5	44.5	129	COC(=O)c1c(Cc2ccc(S(=O)(=O)N(C)C)cc2)c(=O)c2ccc(Cl)cc2n1-c1ccccc1 [Compound 32, 7-Chloro-3-(4-dimethylsulfamoyl-benzyl)-4-oxo-1-phenyl-1,4-dihydroquinoline-2-carboxylic acid methyl ester]	
206.3 to 208	154	336	CC(=O)c1c(Cc2ccc(S(=O)(=O)N3CCN(C)CC3)cc2)c(=O)c2ccc(Cl)cc2n1-c1ccccc1 [Compound 72, 2-acetyl-7-chloro-3-[4-(4-methylpiperazine-1-sulfonyl)-benzyl]-1-phenyl-1H-quinolin-4-one]	
135 to 136	33.4	83.2	COC(=O)c1c(Cc2ccc(S(=O)(=O)N3CC[C@H](O)C3)cc2)c(=O)c2ccc(Cl)cc2n1-c1ccccc1 [Compound 87, 7-Chloro-3-[4-(3-hydroxypyrrolidine-1-sulfonyl)-benzyl]-4-oxo-1-phenyl-1,4-dihydroquinoline-2-carboxylic acid methyl ester]	
240 to 242.6	48.1	118	COC(=O)c1c(Cc2ccc(S(=O)(=O)NCC(C)(C)O)cc2)c(=O)c2ccc(Cl)cc2n1-c1ccccc1 [Compound 85, 3-[4-(2-Hydroxy-2-methylpropylsulfonamoyl)benzyl]-4-oxo-7-chloro-1-phenyl-1,4-dihydroquinoline-2-carboxylic acid methyl ester]	
175.3 to 180.3	32	86.7	COC(=O)c1c(Cc2ccc(S(=O)(=O)C(C)CO)cc2)c(=O)c2ccc(Cl)cc2n1-c1ccccc1 (centres unmarked) [Compound 117]	
279.3 to 282.8	612	2090	Nc1cccc(-n2c(-c3ncco3)c(Cc3ccccc3)c(=O)c3ccc(Cl)cc32)n1 [Compound 141, 1-(6-amino-pyridin-2-yl)-3-benzyl-7-chloro-2-oxazol-2-yl-1H-quinolin-4-one]	
170 to 171	18.4	47	COC(=O)c1c(Cc2ccc(S(=O)(=O)N3CCC(O)CC3)cc2)c(=O)c2ccc(Cl)cc2n1-c1ccccc1 [Compound 69, 7-Chloro-3-[4-(4-hydroxypiperidine-1-sulfonyl)-benzyl]-4-oxo-1-phenyl-1,4-dihydroquinoline-2-carboxylic acid methyl ester]	
	245	840	CC(=O)c1c(Cc2ccc(S(=O)(=O)NCC(C)(C)O)cc2)c(=O)c2ccc(Cl)cc2n1-c1ccccc1 [Compound 88, 3-[4-(2-hydroxy-2-methylpropylsulfonamoyl)benzyl]-4-oxo-7-chloro-1-phenyl-2-acetyl-1,4-dihydroquinoline]	
			COC(=O)c1c(Cc2ccc(C(=O)NCCO)cc2)c(=O)c2ccc(Cl)cc2n1-c1ccccc1 [Compound 18, 7-chloro-3-[4-(2-hydroxyethylcarbamoyl)-benzyl]-4-oxo-1-phenyl-1,4-dihydroquinoline-2-carboxylic acid methyl ester]	IL-6 Inhibition (%) ([1]; 3 mg/Kg): 53%; IL-6 Inhibition (%) ([2]; 0.3 mg/Kg): 30.01%; IL-6 Inhibition (%) ([2]; 1.0 mg/Kg): 47.83%; IL-6 Inhibition (%) ([2]; 3.0 mg/Kg): 54.85%; IL-6 Inhibition (%) ([2]; 10 mg/Kg): 71.15%
223.3 to 226.6	35.5	86.3	COC(=O)c1c(Cc2ccc(S(=O)(=O)N3CCN(C)CC3)cc2)c(=O)c2ccc(Cl)cc2n1-c1ccccc1 [Compound 30, 7-chloro-3-[4-(4-methyl-piperazine-1-sulfonyl)-benzyl]-4-oxo-1-phenyl-1,4-dihydroquinoline-2-carboxylic acid methyl ester]	IL-6 Inhibition (%) ([1]; 30 mg/Kg): 46%

SMILES	melting point [°C]	IC50 (Human JNK1α1; [3]) [nM]	IC50 (Human JNK2α2) [nM]	further results
COC(=O)c1c(Cc2ccc(S(=O)(=O)N3CCNCC3)cc2)c(=O)c2ccc(Cl)cc2n1-c1ccccc1.Cl [Compound 67, 7-Chloro-4-oxo-1-phenyl-3-[4-(piperazine-1-sulfonyl)-benzyl]-1,4-dihydroquinoline-2-carboxylic acid methyl ester bishydrochloride]	214 to 215.5		48.5	IC50 (Human JNK1α1; [4]): 30.4 nM
COC(=O)c1c(Cc2ccc(S(=O)(=O)N3CCNCC3)cc2)c(=O)c2ccc(Cl)cc2n1-c1ccccc1.O=C(O)C(F)(F)F [Compound 66, 7-chloro-4-oxo-1-phenyl-3-[4-(piperazine-1-sulfonyl)-benzyl]-1,4-dihydro-quinoline-2-carboxylic acid methyl ester trifluoroacetate]	203 to 205		44.5	IC50 (Human JNK1α1; [4]): 18.1 nM
COC(=O)c1c(Cc2ccc(S(=O)(=O)N3CCC(O)CC3)cc2)c(=O)c2ccc(F)cc2n1-c1ccccc1 [Compound 110]	232 to 233	50.2	201	
